Results as given in patent US20030113369A1, “Liposomes with enhanced circulation time and method of treatment” (priority 1991, published 2003).
“Also recorded” adds a separate entry of the source.

Tests used:
[1] = Plasma kinetics of free and liposomal doxorubicin; details: dogs
Protocol: (§1) The PEG-PE lipids were formulated with hydrogenated soy bean PC(HSPC) and cholesterol, in a mole ratio of 0.15:1.85:1 (PEG-Dox).
(§2) A doxorubicin HCl solution (the marketed product, Free Dox) was obtained from the hospital pharmacy.
(§3) Free DOX, PEG-Dox and HPI-Dox were diluted to the same concentration (1.8 mg/ml) using unbuffered 5% glucose on the day of injection. Dogs were randomized into three groups (2 females, 1 male) and weighed. An 18 gauge Venflon IV catheter was inserted in a superficial limb vein in each animal. The drug and liposome suspensions were injected by quick bolus (15 seconds). Four ml blood samples were before injection and at 5, 10, 15, 30, 45 min, 1, 2, 4, 6, 8, 10, 12, 24, 48 and 72 hours post injection. In the liposome groups blood was also drawn after 96, 120, 144, and 168 hours. Plasma was separated from the formed elements of the whole blood by centrifugation and doxorubicin concentrations assayed by standard fluorescence techniques. The amount of doxorubicin remaining in the blood was expressed as a percentage of peak concentration of labeled drug, measured immediately after injection.

[2] = test system: J-6456 lymphoma; test: Tissue distribution of doxorubicin, ascites tumor; details: for Plasma: 10 mg/kg doxorubicin IV; for Plasma / Ascites Tumor (tumor & fluid) / Heart / Liver: value (SD); for Ascites Tumor (tumor & fluid) / Heart / Liver: 10 mg/kg
Protocol: Two groups of 15 mice were injected interperitoneally with 10^6 J-6456 lymphoma cells. The tumor was allowed to grow for one-two weeks at which time 5 ml of ascites fluid had accumulated. The mice were then injected IV with 10 mg/kg doxorubicin either in free drug form (group 1) or entrapped in PEG liposomes as described in Example 11 (group 2). Ascites fluid was withdrawn from three animals in each group at 1, 4, 15, 24 and 48 hours post treatment. The ascites tumor was further fractionated into cellular and fluid components by centrifugation (15 min. 5000 rpm). Free and liposome-bound drug in the supernatant was determined by passing the fluid through a Dowex 50-WX-4 resin, as above, to remove free drug. The doxorubicin concentrations in the ascites fluid, tumor cells, supernatant, and resin-treated supernatant were then determined, and from these values, μg doxorubicin/gram tissue was calculated.
In a similar experiment two groups of twelve mice were implanted IP with the J-6456 lymphoma and the tumor was allowed to establish as described above. Once the ascites tumor had reached about 5 ml, one group of animals was injected with 10 mg/kg free doxorubicin and the other group with 10 mg/kg doxorubicin entrapped in PEG liposomes. At 4, 24 and 48 hours post treatment ascites fluid and blood samples were withdrawn from four animals in each group and the animals were sacrificed. Sections of liver and heart tissue were excised from each animal, homogenized and drug concentration assayed as described above. Plasma was separated from whole blood by centrifugation and drug concentration assayed as stated above. Doxorubicin concentration in the ascites fluid was also measured. Plasma and ascites fluid levels are expressed as pg doxorubicin per ml and liver and heart tissue values as pg doxorubicin per gram tissue. The standard deviations for each measurement is shown in parentheses.

[3] = dog, in vivo
Protocol: as §1, §2, §3

[4] = test system: syngeneic mammary carcinoma cells (MC2); details: cited from earlier work
[5] = test system: C-26 colon carcinoma; details: cited from earlier work
[6] = test system: J-6456 lymphoma; test: Tissue distribution of doxorubicin, subcutaneous tumor; format: in vivo, mice; details: heart, muscle, tumor at 4, 24, 48 hours; 10 mg/kg IV
Protocol: That liposome delivery to the tumor is required for selective drug targeting can be seen from the study reported in Example 12. Here mice were inoculated subcutaneously with the J-6456 lymphoma which formed a solid tumor mass of about 1 cm^3 after one-two weeks. The animals were then injected either with free doxorubicin or doxorubicin loaded into PEG-liposomes at a dose of 10 mg drug per kg body weight. The tissue distribution (heart, muscle, and tumor) of the drug was then assayed at 4, 24, and 48 hours after drug administration.
Two groups of twelve mice were injected subcutaneously with 10^6 J-6456 tumor cells. After 14 days the tumors had grown to about 1 cm^3 in size in the subcutaneous space and the animals were injected IV (tail vein) with 10 mg/kg doxorubicin as free drug (group 1) or encapsulated in PEG liposomes (group 2). At 4, 24, and 48 hours after drug injection, four animal in each group were sacrificed, and sections of tumor, heart, and muscle tissue were excised. Each tissue was weighed, then homogenized and extracted for determination of doxorubicin concentration using a standard florescence assay procedure Gabizon, 1989). The total drug measured in each homogenate was expressed as μg drug per gram tissue.

[7] = test system: J-6456 lymphoma; test: Tumor treatment, survival after IP lymphoma implantation; format: in vivo, mice; details: 10 mg/kg IV
Protocol: A doxorubicin HCl solution to be used as the free drug control was obtained from a hospital pharmacy. A total of 30 mice were injected IP with 10^6 J-6456 lymphoma cells. The animals were divided into three 10-animal groups, each of which was injected IV with 0.4 ml of either saline vehicle, 10 mg/kg doxorubicin solution or the doxorubicin-loaded liposomes at 10 mg/kg. Each group was followed for 100 days for number of surviving animals. The percent survivors for each treatment group is plotted in FIG. 16.

[8] = Maximum tolerated dose; details: in mice; highest dose without death or dramatic weight loss within 14 days
Protocol: Solutions of free doxorubicin HCl, epirubicin HCl were obtained as above. PEG-liposome formulations containing either doxorubicin or epirubicin, at a drug concentration of 70-90 μg compound/μmole liposome lipid, were prepared as described in Example 10. Conventional liposomes (no PEG-derivatized lipid) were loaded with doxorubicin to a drug concentration of […] lipid using standard techniques.
Each of the five formulations was administered to 35 mice, at a dose between 10 and 40 mg drug/kg body weight, in 5 mg/kg increments, with five receiving each dosage.

[9] = test system: C-26 colon carcinoma; test: Tumor treatment, subcutaneous colon carcinoma; format: in vivo, mice
Protocol: Vesicle-forming lipids containing PEG-PE, PG, PHEPC, and cholesterol and α-TC in a mole ratio of 0.15:0.3:1.85:1:0.2 were dissolved in chloroform to a final lipid concentration of 25 μmol phospholipid/ml. The lipid mixture was dried into a thin film under reduced pressure. […] The MLV suspension was frozen in a dry ice acetone bath and thawed three times and sized to 80-100 nm by extrusion as detailed above. An ammonium ion gradient was created substantially as described in Example 10. The liposomes were loaded with epirubicin, and free (unbound drug) removed also as described in Example 10 for doxorubicin. […] Epirubicin HCl and doxorubicin HCL, the commercial products, were obtained from the hospital pharmacy.
About 10^6 cells C-26 colon carcinoma cells were injected subcutaneously into three groups of 35 mice. The groups were subdivided into five 7-animal subgroups.
Each group was followed for 28 days. Tumor size was measured for each animal on days 5, 7, 12, 14, 17, 21, 24 and 28. The growth of the tumor in each subgroup (expressed as the mean tumor size of the individual animals) at each time point is plotted in FIG. 15A.
The same number of animals were inoculated with the same number of tumor cells as described above.

[10] = Multidose toxicity of doxorubicin: weight change and histopathology; format: in vivo, mice; details: four weekly 10 mg/kg, sacrificed day 29
Protocol: FIG. 20 is a plot of weight changes in normal Sabra male mice untreated (open circles) or treated with four weekly intravenous injections on days […] with a 10 mg/kg dose of either free doxorubicin (open triangles) or PEG liposomes with entrapped doxorubicin (open squares); and
Similar reduced toxicity results were obtained when free doxorubicin was compared with PEG liposomes with entrapped doxorubicin, in groups of mice receiving four weekly injections of 10 mg/kg doxorubicin on days 1, 8, 15 and 22.

[11] = Blood biochemistry; format: in vivo, mice; details: pooled serum
Protocol: Blood chemistries were measured in groups of both male and female mice receiving the same dose and injection schedule of free or PEG-liposomes with entrapped epirubicin as above.

[12] = test system: C-26 colon carcinoma; test: Tumor treatment with conventional doxorubicin liposomes; format: in vivo, mice; details: 10 mg/kg on days 8, 15 and 22; FIG. 17
Protocol: Conventional doxorubicin liposomes (L-DOX) were prepared according to published methods (Gabizon, 1988). Briefly, a mixture of eggPG, Egg,PC, cholesterol and α-TC in a mole ratio of 0.3:1.4:1:0.2 was made in chloroform. The solvent was removed under reduced presssure and the dry lipid film hydrated with a solution of 155 mM NaCl containing 2-5 mg doxorubicin HCl. The resulting MLV preparation was down-sized by extrusion through a series of polycarbonate membranes to a final size of about 250 nm. The free (unentrapped) drug was removed by passing the suspension over a bed of Dowex resin. The final doxorubicin concentration was about […] lipid.
Three groups of 7 mice were inoculated subcutaneously with 10^5-10^6 C-26 colon carcinoma cells as detailed in Example 15. The animals were divided into three, 7-animal treatment groups, one of which receivd 0.5 ml of saline vehicle as a control. The other two groups were treated with doxorubicin either as a free drug solution or in the form of L-DOX liposomes at a dose of 10 mg/kg. The treatments were given on days 8, 15 and 22 after tumor cell inoculation. Tumor size was measured on the days treatments were given and day 28.

## COc1cccc2c1C(=O)c1c(O)c3c(c(O)c1C2=O)C[C@@](O)(C(=O)CO)C[C@@H]3O[C@H]1C[C@H](N)[C@H](O)[C@H](C)O1.Cl [Free DOX, Doxorubicin HCl]
[1]
  t1/2: 1.9 to 3.3 h
[2]; 4 hours
  Tumor/Heart: 0.0052
  Plasma: 0.9 (0.0) μg/ml
  Ascites Tumor (tumor & fluid): 0.3 (0.1) μg/ml
  Heart: 5.7 (3.4) μg/gram
  Liver: 8.1 (1.4) μg/gram
[2]; 24 hours
  Tumor/Heart: 0.04
  Plasma: 0.0 µg/mL
  Ascites Tumor (tumor & fluid): 0.1 (0.1) μg/ml
  Heart: 2.5 (0.3) μg/gram
  Liver: 6.2 (4.8) μg/gram
[2]; 48 hours
  Tumor/Heart: 0.266
  Plasma: 0.0 µg/mL
  Ascites Tumor (tumor & fluid): 0.4 (0.3) μg/ml
  Heart: 1.5 (0.6) μg/gram
  Liver: 6.1 (3.6) μg/gram
[3]
  AUC: 7.1 to 10.0 mg/L
  clearance: 10 to 15 mL/min
[3]; iv
  Kinetic Pattern: Bi-exp.
  Peak Conc.: 0.4 to 2.2 mg/L
[4]
  in vitro sensitivity of MC2 cells: sensitive in vitro
[5]
  in vitro activity against C-26 colon carcinoma: show in vitro activity against this tumor
[6]
  selective drug accumulation in the tumor: No selective drug accumulation into the tumor occurred
[7]
  survival relative to the saline group: little improvement in survival over the saline group
[8]
  Maximum Tolerated Dose: 10 to 12 mg/kg
[9]; 6 mg/kg on days 1, 8 and 15, seven animals per group
  survival of the animals at 120 days following tumor implantation: none
[9]; IV on days 1, 8 and 15, FIG. 15A
  tumor growth compared with the saline control: neither free doxorubicin nor free epirubicin at 6 mg/kg significantly suppressed tumor growth
[10]
  histopathology, gonads: lack of follicular maturation and of spermatogenesis
  histopathology, heart: mild to moderate myolysis was seen in all (13) mice
  histopathology, kidney: advanced signs of nephrosis
  histopathology, lungs, adrenals, small bowel, pancreas, urinary bladder: No damage was observed
  histopathology, spleen: reversible atrophy of the red and white pulp
[10]; listed as free doxorubicin, HCl
  histopathology, liver: hematopoiesis foci were present in both groups; also recorded: microcytosis was also observed
[11]; females
  Albumin: 31 g/1
  Alk. Phos.: 162 μ/1
  Calcium: 2.9 mmol/1
  Chloride: 118 mmol/1
  Cholesterol: 4.7 mmol/1
  Creatinine: 123 μmol/1
  Glucose: 2.9 mmol/1
  Phosphorus: 3.4 mmol/1
  Sodium: 154 mmol/1
  Total protein: 57 g/1
  Urea: 12.5 mmol/1
  Uric acid: 350 μmol/1
[11]; males
  Albumin: 21 g/1
  Alk. Phos.: 129 μ/1
  Bilirubin: 0 μmol/1
  Calcium: 1.6 mmol/1
  Chloride: 117 mmol/1
  Cholesterol: 6.0 mmol/1
  Creatinine: 37 μmol/1
  Glucose: 1.3 mmol/1
  Phosphorus: 5.2 mmol/1
  Sodium: 150 mmol/1
  Total protein: 39 g/1
  Urea: 12.4 mmol/1
  Uric acid: 333 μmol/1
[12]
  tumor growth: suppressed tumor growth to a modest extent compared with the saline control
